Results on twelve molecules are retold here after patent US11739098B2 (BRISTOL-MYERS SQUIBB COMPANY, priority 2017, dated 2023).

A word on the IC50: it is the concentration at which inhibition is half-maximal. The low end stands for higher potency, the high end for lower potency.

What all share (type): cell-based
The target of one experiment is T1, human TLR9 (Homo sapiens, UniProt Q9NR96).
T1 construct: host or cells: HEK-Blue cells (HEK293-derived reporter line)
T1 sequence (Q9NR96 26-1032): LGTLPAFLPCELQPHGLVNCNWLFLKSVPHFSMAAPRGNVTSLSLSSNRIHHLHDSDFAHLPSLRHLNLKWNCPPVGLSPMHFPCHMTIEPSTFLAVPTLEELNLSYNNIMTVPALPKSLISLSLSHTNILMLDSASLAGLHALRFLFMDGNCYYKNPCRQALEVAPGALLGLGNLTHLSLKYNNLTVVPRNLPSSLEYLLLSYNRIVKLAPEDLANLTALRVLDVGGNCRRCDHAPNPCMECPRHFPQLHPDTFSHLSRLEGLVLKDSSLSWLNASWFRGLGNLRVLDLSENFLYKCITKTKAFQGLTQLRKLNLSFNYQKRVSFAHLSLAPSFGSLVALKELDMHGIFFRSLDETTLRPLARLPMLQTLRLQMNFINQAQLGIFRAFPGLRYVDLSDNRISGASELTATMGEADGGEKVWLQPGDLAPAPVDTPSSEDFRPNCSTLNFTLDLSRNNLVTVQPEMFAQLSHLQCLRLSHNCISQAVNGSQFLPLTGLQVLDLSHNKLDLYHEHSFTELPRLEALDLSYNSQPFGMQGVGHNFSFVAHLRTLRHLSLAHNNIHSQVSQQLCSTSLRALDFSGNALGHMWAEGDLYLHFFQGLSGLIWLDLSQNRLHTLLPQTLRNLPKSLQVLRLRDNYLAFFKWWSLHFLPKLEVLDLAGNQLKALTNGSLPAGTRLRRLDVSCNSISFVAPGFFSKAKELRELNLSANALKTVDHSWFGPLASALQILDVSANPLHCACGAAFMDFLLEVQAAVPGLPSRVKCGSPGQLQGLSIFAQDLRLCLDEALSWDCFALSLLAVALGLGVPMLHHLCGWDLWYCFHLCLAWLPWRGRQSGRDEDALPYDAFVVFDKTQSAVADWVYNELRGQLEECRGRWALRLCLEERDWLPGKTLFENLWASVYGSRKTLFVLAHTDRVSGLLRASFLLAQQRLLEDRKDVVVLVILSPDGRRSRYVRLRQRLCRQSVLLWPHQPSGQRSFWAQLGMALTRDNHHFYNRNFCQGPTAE
In words: TLR9 inhibition reporter assay (HEK-Blue cells, SEAP reporter, ODN2006 stimulation). The note with it: HEK-Blue cells overexpressing human TLR9, SEAP reporter, ODN2006 5 nM. The method in brief: (§1)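 HEK-Blue cells overexpressing human TLR7, TLR8 or TLR9 (NF-κB/AP-1-driven SEAP) pre-treated 30 min at room temperature with compound (0.05 nM–50 μM), then stimulated with gardiquimod 7.5 μM (TLR7), R848 15.9 μM (TLR8) or ODN2006 5 nM (TLR9). SEAP read colorimetrically after 22 h at 37 °C; % inhibition calculated.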

The target in the next experiment is T2, human TLR7 (Homo sapiens, UniProt Q9NYK1).
T2 construct: host or cells: HEK-Blue cells (HEK293-derived reporter line)
T2 sequence (Q9NYK1 27-1049): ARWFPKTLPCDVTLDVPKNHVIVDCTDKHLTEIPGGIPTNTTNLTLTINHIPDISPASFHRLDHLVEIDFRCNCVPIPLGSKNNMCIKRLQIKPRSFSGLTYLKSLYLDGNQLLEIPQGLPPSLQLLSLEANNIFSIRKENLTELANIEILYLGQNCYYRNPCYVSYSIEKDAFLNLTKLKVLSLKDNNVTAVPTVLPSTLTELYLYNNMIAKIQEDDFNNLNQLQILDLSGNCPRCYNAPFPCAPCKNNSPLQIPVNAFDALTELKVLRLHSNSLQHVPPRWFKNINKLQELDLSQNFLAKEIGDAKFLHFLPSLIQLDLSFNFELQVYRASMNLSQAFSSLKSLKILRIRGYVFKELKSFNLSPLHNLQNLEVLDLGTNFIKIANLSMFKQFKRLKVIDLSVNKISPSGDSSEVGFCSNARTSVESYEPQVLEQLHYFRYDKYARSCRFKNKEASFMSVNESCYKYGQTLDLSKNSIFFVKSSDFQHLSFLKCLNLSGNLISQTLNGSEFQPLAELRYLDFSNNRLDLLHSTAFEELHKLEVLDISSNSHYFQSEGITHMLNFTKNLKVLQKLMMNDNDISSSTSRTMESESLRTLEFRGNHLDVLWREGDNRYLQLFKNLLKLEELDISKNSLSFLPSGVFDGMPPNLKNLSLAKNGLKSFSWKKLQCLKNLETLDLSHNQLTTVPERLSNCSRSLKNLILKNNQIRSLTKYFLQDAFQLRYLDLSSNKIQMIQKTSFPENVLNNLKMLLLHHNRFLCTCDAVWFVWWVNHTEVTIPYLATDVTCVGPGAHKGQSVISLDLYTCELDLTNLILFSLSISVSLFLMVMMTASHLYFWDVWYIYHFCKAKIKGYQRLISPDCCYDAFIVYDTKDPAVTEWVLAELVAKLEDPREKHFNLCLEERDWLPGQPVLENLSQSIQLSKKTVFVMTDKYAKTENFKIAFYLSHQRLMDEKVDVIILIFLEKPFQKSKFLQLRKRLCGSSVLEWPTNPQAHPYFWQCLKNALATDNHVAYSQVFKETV
In words: TLR7 inhibition reporter assay (HEK-Blue cells, SEAP reporter, gardiquimod stimulation). To be noted: HEK-Blue cells overexpressing human TLR7, SEAP reporter, gardiquimod 7.5 μM. The method in brief:
as §1
A general note: In a reporter assay the amount or activity of a reporter protein is the signal.

The next experiment deals with T3, human TLR8 (Homo sapiens, UniProt Q9NR97).
T3 construct: host or cells: HEK-Blue cells (HEK293-derived reporter line)
T3 sequence (Q9NR97 27-1041): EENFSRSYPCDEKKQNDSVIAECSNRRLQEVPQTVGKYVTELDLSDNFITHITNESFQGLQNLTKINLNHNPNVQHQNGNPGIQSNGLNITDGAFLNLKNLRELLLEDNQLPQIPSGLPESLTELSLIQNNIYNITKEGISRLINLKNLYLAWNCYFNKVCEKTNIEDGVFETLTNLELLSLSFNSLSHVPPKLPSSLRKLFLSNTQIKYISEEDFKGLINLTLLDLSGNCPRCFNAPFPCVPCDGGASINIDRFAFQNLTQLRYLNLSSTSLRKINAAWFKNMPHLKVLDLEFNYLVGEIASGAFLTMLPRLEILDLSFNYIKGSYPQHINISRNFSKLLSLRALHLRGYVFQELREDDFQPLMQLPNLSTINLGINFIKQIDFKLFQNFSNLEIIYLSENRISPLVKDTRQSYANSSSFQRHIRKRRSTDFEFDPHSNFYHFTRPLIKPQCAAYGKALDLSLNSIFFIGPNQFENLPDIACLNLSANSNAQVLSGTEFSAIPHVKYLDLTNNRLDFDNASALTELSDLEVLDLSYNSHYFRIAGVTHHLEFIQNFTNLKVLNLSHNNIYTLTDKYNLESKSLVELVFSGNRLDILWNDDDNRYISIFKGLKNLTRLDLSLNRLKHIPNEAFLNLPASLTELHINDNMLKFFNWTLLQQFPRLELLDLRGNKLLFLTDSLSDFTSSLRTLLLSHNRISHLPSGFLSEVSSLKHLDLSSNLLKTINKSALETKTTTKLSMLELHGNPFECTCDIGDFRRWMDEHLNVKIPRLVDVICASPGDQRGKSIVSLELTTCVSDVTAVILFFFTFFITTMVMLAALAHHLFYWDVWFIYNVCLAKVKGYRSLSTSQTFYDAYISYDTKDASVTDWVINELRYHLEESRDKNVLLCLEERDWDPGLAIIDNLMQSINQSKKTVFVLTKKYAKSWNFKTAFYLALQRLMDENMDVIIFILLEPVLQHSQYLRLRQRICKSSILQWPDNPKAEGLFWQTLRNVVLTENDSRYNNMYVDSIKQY
The experiment in a line: TLR8 inhibition reporter assay (HEK-Blue cells, SEAP reporter, R848 stimulation). The note with it: HEK-Blue cells overexpressing human TLR8, SEAP reporter, R848 15.9 μM. In a few lines:
as §1

Take `CCc1c(-c2cccc3c2cnn3C)[nH]c2ccc(C3CCN(C(=O)CN[C@H]4CC[C@@H](N)CC4)CC3)cc12` [Example 519, 2-(((1s,4s)-4-aminocyclohexyl)amino)-1-(4-(3-ethyl-2-(1-methyl-1H-indazol-4-yl)-1H-indol-5-yl)piperidin-1-yl)ethan-1-one]: the values for the IC50 at human TLR9, at human TLR7 and on human TLR8 were 1 to 50 µM, above 50 µM and above 50 µM, respectively.

Consider `Cc1cc(-c2[nH]c3ccc(C4CCN(C(=O)CN5CCCCC5)CC4)cc3c2C(C)C)cn2nnnc12` [Example 472, 1-(4-(3-isopropyl-2-(8-methyltetrazolo[1,5-a]pyridin-6-yl)-1H-indol-5-yl)piperidin-1-yl)-2-(piperidin-1-yl)ethan-1-one], for which the IC50 at human TLR9 was 1 to 50 µM; at human TLR7, below 0.1 µM; at human TLR8, below 0.1 µM.

For the molecule `CCc1c(-c2cnc3cn[nH]c3c2)[nH]c2ccc(C3CCN(C4CCN(C(C)C)CC4)CC3)cc12` [Example 836, 6-(3-ethyl-5-(1′-isopropyl-[1,4′-bipiperidin]-4-yl)-1H-indol-2-yl)-1H-pyrazolo[4,3-b]pyridine], the IC50 against human TLR9, against human TLR7 and against human TLR8 was below 0.1 µM in each case.

In the case of `CNCC(=O)N1CCC(c2ccc3[nH]c(-c4cn5ccnc5c(C)c4C)c(C(C)C)c3c2)CC1` [Example 548, 1-(4-(2-(7,8-dimethylimidazo[1,2-a]pyridin-6-yl)-3-isopropyl-1H-indol-5-yl)piperidin-1-yl)-2-(methylamino)ethan-1-one], the IC50 on human TLR9 is 0.1 to 1 µM; on human TLR7, below 0.1 µM; against human TLR8, 0.1 to 1 µM.

On to `Cc1cc(-c2[nH]c3ccc(C4CCN(C(=O)CN(C)C)CC4)cc3c2C(C)C)cn2nnnc12` [Example 477, 2-(dimethylamino)-1-(4-(3-isopropyl-2-(8-methyltetrazolo[1,5-a]pyridin-6-yl)-1H-indol-5-yl)piperidin-1-yl)ethan-1-one], for which the IC50 is 1 to 50 µM against human TLR9, below 0.1 µM on human TLR7 and below 0.1 µM against human TLR8.

With `Cc1cc(-c2[nH]c3ccc(C4CCNCC4)cc3c2C(C)C)cc2c(C(=O)N(C)C)cnn12` [Example 275, 5-(3-isopropyl-5-(piperidin-4-yl)-1H-indol-2-yl)-N,N,7-trimethylpyrazolo[1,5-a]pyridine-3-carboxamide], the IC50 on human TLR9 is 1 to 50 µM; against human TLR7, 0.1 to 1 µM; at human TLR8, above 3.13 µM.

Turning to `Cc1c(-c2[nH]c3ccc(C4CCN(C(=O)CN(C)C)CC4)cc3c2C(C)C)cn2nnnc2c1C` [Example 468, 2-(dimethylamino)-1-(4-(2-(7,8-dimethyltetrazolo[1,5-a]pyridin-6-yl)-3-isopropyl-1H-indol-5-yl)piperidin-1-yl)ethan-1-one], the results for the IC50 at human TLR9, at human TLR7 and on human TLR8 were 1 to 50 µM, below 0.1 µM and below 0.1 µM, respectively.

As for `Cc1cc(-c2[nH]c3ccc(C4CCNCC4)cc3c2C(C)C)cn2cc(C(=O)NCCO)nc12` [Example 267, N-(2-hydroxyethyl)-6-(3-isopropyl-5-(piperidin-4-yl)-1H-indol-2-yl)-8-methylimidazo[1,2-a]pyridine-2-carboxamide], the IC50 is 1 to 50 µM at human TLR9, below 0.1 µM against human TLR7 and below 0.1 µM against human TLR8.

Take `CNCCN1CCC(c2ccc3[nH]c(-c4ccnc5[nH]ncc45)c(C(C)C)c3c2)C(F)C1` (stereo not drawn) [Example 678, 2-(3-fluoro-4-(3-isopropyl-2-(1H-pyrazolo[3,4-b]pyridin-4-yl)-1H-indol-5-yl)piperidin-1-yl)-N-methylethan-1-amine]: the half-inhibitory concentration (IC50) was 1 to 50 µM on human TLR9, 0.1 to 1 µM at human TLR7 and below 0.1 µM on human TLR8.

As to `CC(C)c1c(-c2ccnc3c2ncn3C)[nH]c2ccc(C3CCNCC3)cc12` [Example 45, 7-(3-isopropyl-5-(piperidin-4-yl)-1H-indol-2-yl)-3-methyl-3H-imidazo[4,5-b]pyridine], the IC50 was in the range of 1 to 50 µM against human TLR9, 0.1 to 1 µM at human TLR7 and 0.1 to 1 µM against human TLR8.

On to `CC(=O)N1CCN(CC(=O)N2CCC(c3ccc4[nH]c(-c5ccnc6[nH]ncc56)c(C(C)C)c4c3)CC2)CC1` [Example 574, 2-(4-acetylpiperazin-1-yl)-1-(4-(3-isopropyl-2-(1H-pyrazolo[3,4-b]pyridin-4-yl)-1H-indol-5-yl)piperidin-1-yl)ethan-1-one], for which the values for the IC50 at human TLR9, at human TLR7 and at human TLR8 were above 50 µM, below 0.1 µM and below 0.1 µM, respectively.

For the molecule `Cc1cc(-c2[nH]c3ccc(C4CCN(C(=O)CN(C)C)CC4)cc3c2C(C)C)cc2cccnc12` [Example 529, 2-(dimethylamino)-1-(4-(3-isopropyl-2-(8-methylquinolin-6-yl)-1H-indol-5-yl)piperidin-1-yl) ethan-1-one], the IC50 at human TLR9 is 1 to 50 µM; at human TLR7 it was below 0.1 µM; against human TLR8, below 0.1 µM.
